This is an account of results in patent US20120077852A1, “HYDROXYPYRIDINONES FOR THE LOCAL TREATMENT OF SKIN MICROCIRCULATORY DISORDERS” (priority 2002, published 2012).

Data set [1] can be described thus: Kow distribution coefficient, partition between water and 1-octanol. The format is physicochemical. The following applies: distribution coefficient between water and 1-octanol of the hydroxypyridinone HCl addition salt, according Dubbin et al. An excerpt: A key feature is the hydro-lipophilic property, which basically correlate with its distribution coefficients (“Kow”).

For data set [2] the following is noted: relative to deferoxamine; cited from earlier work.
For data set [3] the following is noted: Berdoukas et al, Lancet 1993; cited from earlier work.
The conditions of data set [4]: Kamiyama et al 1981; cited from earlier work.

Turning to `CCc1c(O)c(=O)ccn1CC` [Example 12, 1,2-diethyl-3-hydroxy-4-pyridinone], the Kow in data set [1] was 1.78.

For `CCc1c(O)c(=O)ccn1C` [Example 11, 1-methyl-2-ethyl-3-hydroxy-4-pyridinone], in data set [1], the Kow is reported as 0.63.

For the molecule `Cc1c(O)c(=O)ccn1C` [Example 1, 1,2-dimethyl-3-hydroxy-4-pyridinone], in data set [1], the Kow was 0.17. For the same molecule, the “partition coefficient, times that of deferoxamine” value in data set [2] is 21 times. The “cellular uptake versus deferoxamine” value in data set [3] is on record as “significantly higher than that of deferoxamine”. Also, the “lipid peroxidation, hydroxyl radical production, free radical-mediated cell damage” value in data set [4] is listed as “dramatically decrease”.
